Data: patent publication US9108957B2 (MITSUBISHI TANABE PHARMA CORPORATION, priority 2009, dated 2015)

Target: human recombinant TPK1 (Homo sapiens, UniProt P49841)
Assay: Inhibitory activity against P-GS1 phosphorylation by TPK1 (Kinase Glo luminescence)
Assay type: biochemical
Details: 7.5 μM P-GS1, 10 μM ATP, 25° C. for 16 hours, Kinase Glo Reagent luminescent signal
Method: Inhibitory Activity of the Medicament of the Present Invention Against P-GS1 Phosphorylation by Bovine Cerebral TPK1
A mixture containing 100 mM HEPES-sodium hydroxide (pH 7.2), 1 mM magnesium acetate, 1 mM EGTA, 1 mM dithiothreitol (DTT), 0.02% Tween 20, 7.5 μM P-GS1, 10 μM ATP, human recombinant TPK1 and a compound shown in Table (a final mixture contained 1% DMSO deriving from a solution of a test compound prepared in the presence of 10% DMSO) was used as a reaction system. The phosphorylation was started by adding ATP, and the reaction was conducted at 25° C. for 16 hours. Then equal volume of Kinase Glo Reagent (Promega) was added to the mixture and luminescent signal from the mixture was measured. IC50 for each compound was calculated by setting the data of mixture without enzyme as 0% activity and that without compound as 100% activity.

Sequence of human recombinant TPK1 (P49841 whole entry): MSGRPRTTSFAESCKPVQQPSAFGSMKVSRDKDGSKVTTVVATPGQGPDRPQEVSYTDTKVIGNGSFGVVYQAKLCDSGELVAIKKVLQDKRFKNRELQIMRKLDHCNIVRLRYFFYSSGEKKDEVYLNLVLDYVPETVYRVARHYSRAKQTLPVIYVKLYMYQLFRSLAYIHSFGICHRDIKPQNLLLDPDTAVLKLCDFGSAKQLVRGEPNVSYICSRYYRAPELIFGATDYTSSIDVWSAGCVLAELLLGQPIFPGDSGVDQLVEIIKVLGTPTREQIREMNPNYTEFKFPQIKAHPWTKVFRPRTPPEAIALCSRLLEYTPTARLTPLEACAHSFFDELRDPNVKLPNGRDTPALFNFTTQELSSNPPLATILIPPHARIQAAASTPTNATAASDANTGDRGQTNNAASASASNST

Row | IC50 | Compound
1 | 16.3 nM | COc1ccccc1C1CCN(c2nc(-c3ccncn3)cc(=O)n2C)CCO1 (stereo not shown) [Compound A102, 2-[7-(2-methoxyphenyl)-1,4-oxazepan-4-yl]-3-methyl-6-(pyrimidin-4-yl)pyrimidin-4(3H)-one]
2 | 23.4 nM | Cn1c(N2CCCO[C@@H](c3cccc(C(N)=O)c3)C2)nc(-c2ccncc2)cc1=O [Compound A033, (S)-2-[2-(3-aminocarbonylphenyl)-1,4-oxazepan-4-yl]-3-methyl-6-(pyridin-4-yl)pyrimidin-4(3H)-one]
3 | 23 nM | Cn1c(N2CCOC(c3ccc(-c4ncno4)cc3)CC2)nc(-c2ccncn2)cc1=O (single isomer, unassigned; (+)) [Compound A107, (+)-2-[7-[4-(1,2,4-oxadiazol-5-yl)-phenyl]-1,4-oxazepan-4-yl]-3-methyl-6-(pyrimidin-4-yl)pyrimidin-4(3H)-one]
4 | 58.6 nM | COc1ccc(C2CCN(c3nc(-c4ccncc4)cc(=O)n3C)CCO2)cc1 (stereo not shown) [Compound A118, 2-(7-(4-methoxyphenyl)-1,4-oxazepan-4-yl)-3-methyl-6-(pyridin-4-yl)pyrimidin-4(3H)-one]
5 | 10.7 nM | COc1ccc(C2CCN(c3nc(-c4ccncc4F)cc(=O)n3C)CCO2)cc1 (stereo not shown) [Compound A095, 2-[7-(4-methoxyphenyl)-1,4-oxazepan-4-yl]-6-(3-fluoropyridin-4-yl)-3-methylpyrimidin-4(3H)-one]
6 | 10.3 nM | Cc1nc(-c2cccc([C@H]3CN(c4nc(-c5ccncc5F)cc(=O)n4C)CCCO3)c2)no1 [Compound A016, (S)-2-[2-[3-(5-methyl-1,2,4-oxadiazol-3-yl)-phenyl]-1,4-oxazepan-4-yl]-6-(3-fluoropyridin-4-yl)-3-methylpyrimidin-4(3H)-one]
7 | 13.8 nM | Cn1c(N2CCOC(c3ccc(F)cc3)CC2)nc(-c2ccncn2)cc1=O (stereo not shown) [Compound A098, 2-[7-(4-fluorophenyl)-1,4-oxazepan-4-yl]-3-methyl-6-(pyrimidin-4-yl)pyrimidin-4(3H)-one]
8 | 28 nM | COc1cccc(C2CCN(c3nc(-c4ccncc4)cc(=O)n3C)CCO2)c1 (stereo not shown) [Compound A109, 2-[7-(3-methoxyphenyl)-1,4-oxazepan-4-yl]-3-methyl-6-(pyridin-4-yl)pyrimidin-4(3H)-one]
9 | 15 nM | Cc1nc(-c2ccc(C3CCN(c4nc(-c5ccncn5)cc(=O)n4C)CCO3)cc2)no1 (single isomer, unassigned; (+)) [Compound A100, (+)-2-[7-[4-(5-methyl-1,2,4-oxadiazol-3-yl)-phenyl]-1,4-oxazepan-4-yl]-3-methyl-6-(pyrimidin-4-yl)pyrimidin-4(3H)-one]
10 | 4.5 nM | Cn1c(N2CCCO[C@@H](c3cccc(Br)c3)C2)nc(-c2ccncc2F)cc1=O [Compound A008, (S)-2-[2-(3-bromophenyl)-1,4-oxazepan-4-yl]-6-(3-fluoropyridin-4-yl)-3-methylpyrimidin-4(3H)-one]
11 | 241 nM | Cc1noc(-c2cccc([C@@H]3CN(c4nc(-c5ccncc5F)cc(=O)n4C)CCCO3)c2)n1 [Compound A059, (R)-2-[2-[3-(3-methyl-1,2,4-oxadiazol-5-yl)-phenyl]-1,4-oxazepan-4-yl]-6-(3-fluoropyridin-4-yl)-3-methylpyrimidin-4(3H)-one]
12 | 1.2 nM | Cn1c(N2CCOC[C@@H](c3ccc(Br)cc3)C2)nc(-c2ccncn2)cc1=O [Compound A074, (S)-2-[6-(4-bromophenyl)-1,4-oxazepan-4-yl]-3-methyl-6-(pyrimidin-4-yl)pyrimidin-4(3H)-one]
13 | 41 nM | Cn1c(N2CCOCCC2c2ccccc2)nc(-c2ccncn2)cc1=O (stereo not shown) [Compound A071, 3-methyl-2-(5-phenyl-1,4-oxazepan-4-yl)-6-(pyrimidin-4-yl)pyrimidin-4(3H)-one]
14 | 35.8 nM | Cc1nc(-c2ccc(C3COCCN(c4nc(-c5ccncn5)cc(=O)n4C)C3)cc2)no1 (stereo not shown) [Compound A086, 2-[6-[4-(5-methyl-1,2,4-oxadiazol-3-yl)-phenyl]-1,4-oxazepan-4-yl]-3-methyl-6-(pyrimidin-4-yl)pyrimidin-4(3H)-one]
15 | 176 nM | CC1COCCN(c2nc(-c3ccncc3)cc(=O)n2C)C1 (stereo not shown) [Compound A088, 2-(6-methyl-1,4-oxazepan-4-yl)-3-methyl-6-(pyridin-4-yl)pyrimidin-4(3H)-one]
16 | 30 nM | Cc1noc(-c2ccc(C3CCN(c4nc(-c5ccncc5F)cc(=O)n4C)CCO3)cc2)n1 (single isomer, unassigned; (-)) [Compound A113, (−)-2-[7-[4-(3-methyl-1,2,4-oxadiazol-5-yl)-phenyl]-1,4-oxazepan-4-yl]-6-(3-fluoropyridin-4-yl)-3-methylpyrimidin-4(3H)-one]
17 | 30.8 nM | Cn1c(N2CCCO[C@@H](c3ccc(C#N)cc3)C2)nc(-c2ccncc2)cc1=O [Compound A037, (S)-2-(2-(4-cyanophenyl)-1,4-oxazepan-4-yl)-3-methyl-6-(pyridin-4-yl)pyrimidin-4(3H)-one]

Row | IC50 | Compound
18 | 23.2 nM | C[C@@H]1COCCCN1c1nc(-c2ccncn2)cc(=O)n1C [Compound A064, (R)-3-methyl-2-(3-methyl-1,4-oxazepan-4-yl)-6-(pyrimidin-4-yl)pyrimidin-4(3H)-one]
19 | 80.1 nM | CC1COCCN(c2nc(-c3ccncn3)cc(=O)n2C)C1 (stereo not shown) [Compound A087, 2-(6-methyl-1,4-oxazepan-4-yl)-3-methyl-6-(pyrimidin-4-yl)pyrimidin-4(3H)-one]
20 | 12.9 nM | Cc1noc(-c2ccc(C3COCCN(c4nc(-c5ccncn5)cc(=O)n4C)C3)cc2)n1 (stereo not shown) [Compound A081, 2-[6-[4-(3-methyl-1,2,4-oxadiazol-5-yl)-phenyl]-1,4-oxazepan-4-yl]-3-methyl-6-(pyrimidin-4-yl)pyrimidin-4(3H)-one]
21 | 84.2 nM | Cn1c(N2CCCN(c3ccc(F)cc3)CC2)nc(-c2ccncc2)cc1=O [Compound A005, 2-[4-(4-fluorophenyl)-1,4-diazepan-1-yl]-3-methyl-6-(pyridin-4-yl)pyrimidin-4(3H)-one]
22 | 15.4 nM | Cc1nc(-c2ccc([C@H]3CN(c4nc(-c5ccncc5F)cc(=O)n4C)CCCO3)cc2)no1 [Compound A027, (S)-2-[2-[4-(5-methyl-1,2,4-oxadiazol-3-yl)-phenyl]-1,4-oxazepan-4-yl]-6-(3-fluoropyridin-4-yl)-3-methylpyrimidin-4(3H)-one]
23 | 6 nM | Cn1c(N2CCCO[C@@H](c3ccc(F)cc3)C2)nc(-c2ccncc2F)cc1=O [Compound A011, (S)-2-[2-(4-fluorophenyl)-1,4-oxazepan-4-yl]-6-(3-fluoropyridin-4-yl)-3-methylpyrimidin-4(3H)-one]
24 | 7.3 nM | Cn1c(N2CCCO[C@@H](c3cccc(Br)c3)C2)nc(-c2ccncn2)cc1=O [Compound A079, (S)-2-[2-(3-bromophenyl)-1,4-oxazepan-4-yl]-3-methyl-6-(pyrimidin-4-yl)pyrimidin-4(3H)-one]
25 | 5.2 nM | Cn1c(N2CCCO[C@@H](c3ccc(Br)cc3)C2)nc(-c2ccncn2)cc1=O [Compound A009, (S)-2-[2-(4-bromophenyl)-1,4-oxazepan-4-yl]-3-methyl-6-(pyrimidin-4-yl)pyrimidin-4(3H)-one]
26 | 31.9 nM | Cn1c(N2CCCO[C@@H](c3cccc(C#N)c3)C2)nc(-c2ccncn2)cc1=O [Compound A039, (S)-2-[2-(3-cyanophenyl)-1,4-oxazepan-4-yl]-3-methyl-6-(pyrimidin-4-yl)pyrimidin-4(3H)-one]
27 | 16.7 nM | Cc1nc(-c2ccc([C@@H]3COCCN(c4nc(-c5ccncn5)cc(=O)n4C)C3)cc2)no1 [Compound A085, (S)-2-[6-[4-(5-methyl-1,2,4-oxadiazol-3-yl)-phenyl]-1,4-oxazepan-4-yl]-3-methyl-6-(pyrimidin-4-yl)pyrimidin-4(3H)-one]
28 | 6.1 nM | Cc1noc(-c2ccc(C3CCN(c4nc(-c5ccncc5F)cc(=O)n4C)CCO3)cc2)n1 (single isomer, unassigned; (+)) [Compound A090, (+)-2-[7-[4-(3-methyl-1,2,4-oxadiazol-5-yl)-phenyl]-1,4-oxazepan-4-yl]-6-(3-fluoropyridin-4-yl)-3-methylpyrimidin-4(3H)-one]
29 | 51 nM | Cn1c(N2CCCO[C@H](c3cccc(Br)c3)C2)nc(-c2ccncn2)cc1=O [Compound A043, (R)-2-[2-(3-bromophenyl)-1,4-oxazepan-4-yl]-3-methyl-6-(pyrimidin-4-yl)pyrimidin-4(3H)-one]
30 | 11.3 nM | Cc1nc(-c2ccc(C3CCN(c4nc(-c5ccncc5F)cc(=O)n4C)CCO3)cc2)no1 (single isomer, unassigned; (-)) [Compound A097, (−)-2-[7-[4-(5-methyl-1,2,4-oxadiazol-3-yl)-phenyl]-1,4-oxazepan-4-yl]-6-(3-fluoropyridin-4-yl)-3-methylpyrimidin-4(3H)-one]
31 | 111 nM | Cn1c(N2CCCO[C@H](c3ccc(F)cc3)C2)nc(-c2ccncc2F)cc1=O [Compound A054, (R)-2-[2-(4-fluorophenyl)-1,4-oxazepan-4-yl]-6-(3-fluoropyridin-4-yl)-3-methylpyrimidin-4(3H)-one]
32 | 114 nM | Cn1c(N2CCOC(c3ccc(Br)cc3)CC2)nc(-c2ccncn2)cc1=O (single isomer, unassigned; (-)) [Compound A122, (−)-2-(7-(4-bromophenyl)-1,4-oxazepan-4-yl)-3-methyl-6-(pyrimidin-4-yl)pyrimidin-4(3H)-one]
33 | 17.3 nM | CC1CCOCCN1c1nc(-c2ccncn2)cc(=O)n1C (stereo not shown) [Compound A070, 3-methyl-2-(5-methyl-1,4-oxazepan-4-yl)-6-(pyrimidin-4-yl)pyrimidin-4(3H)-one]
34 | 35.1 nM | Cn1c(N2CCCN(c3ccc(F)cc3)CC2)nc(-c2ccncn2)cc1=O [Compound A004, 2-[4-(4-fluorophenyl)-1,4-diazepan-1-yl]-3-methyl-6-(pyrimidin-4-yl)pyrimidin-4(3H)-one]
